Data taken from patent publication US20260217677A1, “ORGANIC COMPOUNDS AS NLRP3 INHIBITORS” (KODIAK SCIENCES, INC., priority 2023, published 2026).

These compounds were tested on IL-1β release in U937 cells after NLRP3 activation (assay: IL-1β release inhibition in U937 cells (MSD V-Plex)). Details: Homo sapiens, U-937, read-out: IL-1β IC50, Table 3; PMA-differentiated U937 cells, 1 μg/mL LPS 3 h, compound 30 min, 10 mM nigericin 1 h.
Procedure: Differentiating media was prepared by adding 20 nM phorbol 12-myristate 13-acetate (PMA) (AdipoGen AG-CN2-0010-M005) to growth medium. A cell suspension was prepared with differentiating media at 500K cells/mL. […] Plates were placed in an incubator for 90 hours. […] Differentiating media was removed and priming media was added to each well. The plates were placed in the incubator for three (3) hours. 20 mM compound DMSO stock solutions were prepared and were further diluted to 0.4 mM; This solution was serially diluted 6 times in a 1:5 ratio. A solvent control was included.
After three (3) hours of priming, all the media was removed. Next, assay media with compounds was added in duplicate columns. The plate was placed in an incubator for 30 min. Media with a final concentration of 10 mM nigericin was then added for one (1) hour. The supernatant was collected and frozen immediately at −80° C. The plate was transferred to −20° C. the next day and for later determination of cytokine IL-1ß levels.
The release of IL-1ß into the cell media was determined with the MSD® Multi-Spot Assay System (V-Plex, IL-1ß kit, K151KPD). Following the manufacturer's protocol (Alternate Protocol 3, Dilute-In-Plate), the level of IL-1ß in the above collected supernatant plate was measured using electro-chemiluminescent signals. Using MSD DISCOVERY WORKBENCH® analysis software, the signals were converted to the concentration of IL-1ß in each well. The IC50 values of the compounds were calculated using fitted non-linear regression curve in Graph Pad Prism software. The detection range of IL-1ß using MSD kit was approximately 0.15 to 600 μg/mL (based on various lots of standards purchased from MSD).

Row | SMILES | IC50 [nM]
1 | CN1Cc2c(N[C@@H]3CCCN(CC(=O)N4CCC(O)CC4)C3)nnc(-c3ccc(C(F)(F)F)cc3O)c2C1 [Example 60, (R)-2-(3-((4-(2-Hydroxy-4-(trifluoromethyl)phenyl)-6-methyl-6,7-dihydro-5H-pyrrolo[3,4-d]pyridazin-1-yl)amino)piperidin-1-yl)-1-(4-hydroxypiperidin-1-yl)ethan-1-one] | 50 to 500
2 | Cc1cc(N[C@@H]2CCCN(CCC(=O)N3CCC(O)CC3)C2)nnc1-c1ccc(C(F)(F)F)cc1O [Example 46, 3-[(3R)-3-({6-[2-Hydroxy-4-(trifluoromethyl)phenyl]-5-methylpyridazin-3-yl}amino)piperidin-1-yl]-1-(4-hydroxypiperidin-1-yl) propan-1-one] | < 5
3 | Cc1c(-c2ccc(C(F)(F)F)cc2O)nnc2c1CCCN2[C@@H]1CCCN(C2CCN(C3CC(O)C3)CC2)C1 (stereo partly drawn) [Example 44, 2-{8-[(3R)-1′-(3-Hydroxycyclobutyl)-[1,4′-bipiperidin]-3-yl]-4-methyl-5H,6H,7H-pyrido[2,3-c]pyridazin-3-yl}-5-(trifluoromethyl)phenol] | 50 to 500
4 | Cc1cc(N[C@@H]2CCCN(CC(C)(C)C(=O)N3CCC(O)CC3)C2)nnc1-c1ccc(C(F)(F)F)cc1O [Example 47, 3-[(3R)-3-({6-[2-Hydroxy-4-(trifluoromethyl)phenyl]-5-methylpyridazin-3-yl}amino)piperidin-1-yl]-1-(4-hydroxypiperidin-1-yl)-2,2-dimethylpropan-1-one] | 50 to 500
5 | Cc1c(-c2ccc(C(F)(F)F)cc2O)nnc2c1CCCN2[C@@H]1CCCN(C2CCN([C@H]3C[C@@H](O)C3)CC2)C1 [Example 45, 2-{4-Methyl-8-[(3R)-1′-[(1s,3s)-3-hydroxycyclobutyl]-[1,4′-bipiperidin]-3-yl]-5H,6H,7H-pyrido[2,3-c]pyridazin-3-yl}-5-(trifluoromethyl)phenol] | 50 to 500
6 | Cc1cc(C(F)(F)F)cc(O)c1-c1ccc(N[C@@H]2CCCN(CCN3CCC(O)CC3)C2)nn1 [Compound 6, (R)-1-(2-(3-((6-(2-Hydroxy-6-methyl-4-(trifluoromethyl)phenyl)pyridazin-3-yl)amino)piperidin-1-yl)ethyl)piperidin-4-ol] | 50 to 500
7 | Cc1cc(N[C@@H]2CCCN(CCOC(=O)N3CCC(O)CC3)C2)nnc1-c1ccc2sccc2c1O [Example 69, (R)-2-(3-((6-(4-Hydroxybenzo[b]thiophen-5-yl)-5-methylpyridazin-3-yl)amino)piperidin-1-yl)ethyl 4-hydroxypiperidine-1-carboxylate] | < 5
8 | Cc1cc(-c2ccc(C(F)(F)F)cc2O)nnc1N[C@@H]1CCCN(CC(=O)N2CC[C@@H](O)C2)C1 [Example 32, 2-((R)-3-((6-(2-Hydroxy-4-(trifluoromethyl)phenyl)-4-methylpyridazin-3-yl)amino)piperidin-1-yl)-1-((R)-3-hydroxypyrrolidin-1-yl)ethan-1-one] | 5 to 50
9 | O=C(CN1CCC[C@@H](Nc2nnc(-c3ccc(C(F)(F)F)cc3O)c3c2COC3)C1)N1CC(O)C1 [Compound 22, (R)-2-(3-((4-(2-Hydroxy-4-(trifluoromethyl)phenyl)-5,7-dihydrofuro[3,4-d]pyridazin-1-yl)amino)piperidin-1-yl)-1-(3-hydroxyazetidin-1-yl)ethan-1-one] | 5 to 50
10 | Cc1cc(N[C@@H]2CCCN(C(=O)C3CCCC(O)C3)C2)nnc1-c1ccc(C(F)(F)F)cc1O (single isomer, unassigned) [Example 70 Fraction A] | 5 to 50
11 | Cc1cc(N[C@@H]2CCCN(CCN3CCC(O)C3)C2)nnc1-c1ccc(C(F)(F)F)cc1O (stereo partly drawn) [Compound 2, 1-(2-((R)-3-((6-(2-Hydroxy-4-(trifluoromethyl)phenyl)-5-methylpyridazin-3-yl)amino)piperidin-1-yl)ethyl)pyrrolidin-3-ol] | > 500
12 | Cc1c(N[C@@H]2CCCN(CCOC(=O)N3CCC(O)CC3)C2)nnc(-c2ccc(C(F)(F)F)cc2O)c1C [Example 75, (R)-2-(3-((6-(2-Hydroxy-4-(trifluoromethyl)phenyl)-4,5-dimethylpyridazin-3-yl)amino)piperidin-1-yl)ethyl 4-hydroxypiperidine-1-carboxylate] | < 5
13 | Cc1cc(N[C@@H]2CCCN(CC3CC4(CC(O)C4)C3)C2)nnc1-c1ccc(C(F)(F)F)cc1O (stereo partly drawn) [Example 62, (R)-6-((3-((6-(2-Hydroxy-4-(trifluoromethyl)phenyl)-5-methylpyridazin-3-yl)amino)piperidin-1-yl)methyl)spiro[3.3]heptan-2-ol] | < 5
14 | O=C(CN1CCC[C@@H](Nc2nnc(-c3ccc(C(F)(F)F)cc3O)c3c2COC3)C1)N1CCC2(CC1)CC(O)C2 [Compound 24, (R)-2-(3-((4-(2-Hydroxy-4-(trifluoromethyl)phenyl)-5,7-dihydrofuro[3,4-d]pyridazin-1-yl)amino)piperidin-1-yl)-1-(2-hydroxy-7-azaspiro[3.5]nonan-7-yl)ethan-1-one] | 5 to 50
15 | Cc1cc(N[C@@H]2CCCN(C3CCN(C(=O)N4CCC(O)CC4)CC3)C2)nnc1-c1ccc(C(F)(F)F)cc1O [Example 41, (R)-(3-((6-(2-Hydroxy-4-(trifluoromethyl)phenyl)-5-methylpyridazin-3-yl)amino)-[1,4′-bipiperidin]-1′-yl) (4-hydroxypiperidin-1-yl)methanone] | 5 to 50
16 | O=C(CN1CCC[C@@H](Nc2nnc(-c3ccc(C(F)(F)F)cc3O)c3c2COC3)C1)N1CC[C@H](O)C1 [Compound 26, 2-((R)-3-((4-(2-Hydroxy-4-(trifluoromethyl)phenyl)-5,7-dihydrofuro[3,4-d]pyridazin-1-yl)amino)piperidin-1-yl)-1-((S)-3-hydroxypyrrolidin-1-yl)ethan-1-one] | 5 to 50
17 | Cc1cc(N[C@@H]2CCCN(C3CCN(C(=O)N4CC(O)C4)CC3)C2)nnc1-c1ccc(C(F)(F)F)cc1O [Example 40, (R)-(3-((6-(2-Hydroxy-4-(trifluoromethyl)phenyl)-5-methylpyridazin-3-yl)amino)-[1,4′-bipiperidin]-1′-yl) (3-hydroxyazetidin-1-yl)methanone] | < 5
18 | Oc1cc(C(F)(F)F)ccc1-c1nnc(N[C@@H]2CCCN(CCN3CCC(O)CC3)C2)c2c1CCC2 [Compound 19, 1-{2-[(3R)-3-({4-[2-Hydroxy-4-(trifluoromethyl)phenyl]-5H,6H,7H-cyclopenta[d]pyridazin-1-yl}amino)piperidin-1-yl]ethyl}piperidin-4-ol] | 50 to 500

Same assay, conditions: Homo sapiens, U-937, read-out: IL-1β IC50, Table 4; PMA-differentiated U937 cells, 1 μg/mL LPS 3 h, compound 30 min, 10 mM nigericin 1 h

Row | SMILES | IC50 [nM]
19 | Cc1cc(N[C@@H]2CCCN(CC(=O)N3CC(N)C3)C2)nnc1-c1ccc(C(F)(F)F)cc1O [Example 77, (R)-1-(3-Aminoazetidin-1-yl)-2-(3-((6-(2-hydroxy-4-(trifluoromethyl)phenyl)-5-methylpyridazin-3-yl)amino)piperidin-1-yl)ethan-1-one] | 5 to 50
20 | Cc1cc(N[C@@H]2CCCN(CC(=O)N3CCC(N)CC3)C2)nnc1-c1ccc(C(F)(F)F)cc1O [Example 83, (R)-1-(4-Aminopiperidin-1-yl)-2-(3-((6-(2-hydroxy-4-(trifluoromethyl)phenyl)-5-methylpyridazin-3-yl)amino)piperidin-1-yl)ethan-1-one] | 50 to 500
21 | Cc1cc(N[C@@H]2CCCN(CC(=O)N3CCC4(CC3)CNC4)C2)nnc1-c1ccc(C(F)(F)F)cc1O [Example 102, (R)-2-(3-((6-(2-Hydroxy-4-(trifluoromethyl)phenyl)-5-methylpyridazin-3-yl)amino)piperidin-1-yl)-1-(2,7-diazaspiro[3.5]nonan-7-yl)ethan-1-one] | 50 to 500
22 | Cc1cc(N[C@@H]2CCCN(C3CCN(C(=O)N4CCC(N)CC4)CC3)C2)nnc1-c1ccc(C(F)(F)F)cc1O [Example 87, (R)-(4-Aminopiperidin-1-yl) (3-((6-(2-hydroxy-4-(trifluoromethyl)phenyl)-5-methylpyridazin-3-yl)amino)-[1,4′-bipiperidin]-1′-yl)methanone] | 50 to 500
23 | Cc1cc(N[C@@H]2CCCN(CCNCC3CCS(=O)(=O)CC3)C2)nnc1-c1ccc(C(F)(F)F)cc1O [Example 109, (R)-4-(((2-(3-((6-(2-Hydroxy-4-(trifluoromethyl)phenyl)-5-methylpyridazin-3-yl)amino)piperidin-1-yl)ethyl)amino)methyl)tetrahydro-2H-thiopyran 1,1-dioxide] | 5 to 50
24 | Cc1cc(N[C@@H]2CCCN(C3CNC3)C2)nnc1-c1ccc2sccc2c1O [Example 114, (R)-5-(6-((1-(azetidin-3-yl)piperidin-3-yl)amino)-4-methylpyridazin-3-yl)benzo[b]thiophen-4-ol] | < 5
25 | Oc1cc(F)ccc1-c1nnc(N[C@@H]2CCCN(C3CNC3)C2)c2c1CCC2 [Example 81, (R)-2-(4-((1-(Azetidin-3-yl)piperidin-3-yl)amino)-6,7-dihydro-5H-cyclopenta[d]pyridazin-1-yl)-5-fluorophenol] | 50 to 500
26 | Cc1cc(N[C@@H]2CCCN(CC(=O)N3CCNCC3)C2)nnc1-c1ccc(C(F)(F)F)cc1O [Example 103, (R)-2-(3-((6-(2-Hydroxy-4-(trifluoromethyl)phenyl)-5-methylpyridazin-3-yl)amino)piperidin-1-yl)-1-(piperazin-1-yl)ethan-1-one] | 5 to 50
27 | Cc1cc(N[C@@H]2CCCN(C(=O)CN)C2)nnc1-c1ccc(C(F)(F)F)cc1O [Example 92, (R)-2-Amino-1-(3-((6-(2-hydroxy-4-(trifluoromethyl)phenyl)-5-methylpyridazin-3-yl)amino)piperidin-1-yl)ethan-1-one] | 5 to 50

Same assay, conditions: read-out: IL-1β IC50; Table 3; PMA-differentiated U937 cells, 1 μg/mL LPS 3 h, compound 30 min, 10 mM nigericin 1 h

Row | SMILES | IC50 [nM]
28 | Cc1cc(N[C@@H]2CCCN(C3CCC(O)CC3)C2)nnc1-c1ccc(C(F)(F)F)cc1O (single isomer, unassigned) [Example 54] | < 5
29 | Cc1cc(N[C@@H]2CCCN(C3CCN(C4CC(O)C4)CC3)C2)nnc1-c1ccc(C(F)(F)F)cc1O (single isomer, unassigned) [Example 38B] | 5 to 50
